Molecules are shown by their SMILES. Active and inactive are the calls of the source.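 The calls were made as follows: active = IC50 of 10 µM or lower; inactive = IC50 above 10 µM.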

In this assay the test system is HEK-293 Gal4-VP16 UAS luciferase reporter, luminescence. The experiment in a line: GAL4-VP16 reporter repression curves – cell-based, luminescence, high throughput, SRC1 series, counter-screen for SRC1 inhibitor project, dose response (AID 602236).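 Also: inhibitor potency where hits lower luciferase light from Gal4-VP16 transactivation.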
As usually defined, the IC50 is the concentration at which inhibition is half-maximal. For `NC(=O)c1cc(Sc2ccccc2)nc2ccccc12`, the IC50 is 11.6 µM (inactive).
On to `Cc1ccc(N=c2c([N+](=O)[O-])nn(-c3ccc4c(c3)OCCO4)n2O)cc1F`, for which the IC50 is 27 µM (inactive).
Then `COc1cccc(/C=N/NC(=O)CNC(=O)C2COc3ccccc3O2)c1O` (stereo unspecified), with 11.1 µM (inactive).
For `COc1ccc(Nc2ncnc3ccc(C)cc23)cc1` the value was 8.4 µM; for `Nc1ccn(C2OC(CO)C(O)C2O)c(=O)n1` (stereo unspecified), 21.7 µM (inactive).
For `CN(Cc1cnc2nc(N)nc(N)c2n1)c1ccc(C(=O)NC(CCC(=O)O)C(=O)O)cc1` (stereo unspecified) the value was > 35.9 µM (inactive).
With `O=C(CCl)N1N=C(c2ccco2)CC1c1cccs1` (stereo unspecified), the IC50 is 16 µM (inactive).
With `COc1cc(OC)c2cc(C(=O)N/N=C/c3cccc(OC)c3O)[nH]c2c1`, the half-maximal inhibitory concentration (IC50) is 9.42 µM.
As for `NNC(=O)c1cc2ccccc2cc1O`, the IC50 is 18.4 µM (inactive).
For `O=C(CCl)N1N=C(c2ccco2)CC1c1ccco1` (stereo unspecified) the value was > 12 µM (inactive); for `COc1cc2c3c([nH]c2cc1F)C(=O)NCC3`, 24.8 µM (inactive); for `CC(C)n1c(SCC(=O)Nc2nc3c(s2)CCCC3)nc2c1c(=O)n(C)c(=O)n2C`, 13.9 µM (inactive).
As to `O=C(O)CN1C(=O)/C(=C\c2ccccc2OCc2ccc(Cl)cc2Cl)SC1=S`, the IC50 is > 35.9 µM (inactive).
For `CCOc1ccccc1-n1c(SCC(=O)Nc2ccccc2C(=O)O)nc2ccccc2c1=O` the value was > 35.9 µM (inactive); for `COc1ccc(CNc2ncc(-c3ccc(F)cc3)n2C)c2ccccc12`, > 35.9 µM (inactive).
For the compound `CCOC(=O)CSc1cc(-c2ccccc2)nc2ncnn12`, the IC50 is > 35.9 µM (inactive).
On to `Cc1nc2sc(C(N)=O)c(N)c2c(C)c1CC(=O)c1ccccc1`, for which the IC50 was > 35.9 µM (inactive).
As for `Cn1c(=O)c2[nH]c(COc3ccc(C(C)(C)C)cc3)nc2n(C)c1=O`, the IC50 is 8.31 µM.
Then `OCCN(CCO)CC(O)COc1ccc(C23CC4CC(CC(C4)C2)C3)cc1` (stereo unspecified), with > 35.9 µM (inactive).
For the compound `COc1ccccc1N(C(=O)CCl)c1cn(C(C)=O)c2ccccc12`, the IC50 was 9.22 µM.
Consider `C=CCc1ccccc1OCC(=O)N/N=C/c1ccc(OC(C)=O)cc1OC(C)=O`, for which the IC50 is 22.8 µM (inactive).
Then `COc1cc(/C=C2\CC(C(C)(C)C)C/C(=C\c3cc(OC)c(OC)c(OC)c3)C2=O)cc(OC)c1OC` (stereo unspecified), with 5.96 µM; and `Cc1ccc(S(=O)(=O)NC(CC(C)C)C(=O)NCC(c2ccco2)N2CCCCC2)cc1` (stereo unspecified), with > 35.9 µM (inactive).
For `COC(=O)c1sc2cnccc2c1N` the value was > 35.9 µM (inactive).
For `CN(C)c1ccc(Nc2ncnc3ccc(Br)cc23)cc1` the value was 3.2 µM; for `CCC(=O)c1ccc(Oc2nc3c(c(=O)n(C)c(=O)n3C)n2CC)cc1`, 12.4 µM (inactive).
With `COc1ccc(Nc2ncnc3ccc(Br)cc23)c(OC)c1`, the IC50 was 15.9 µM (inactive).
Take `O=C(CCn1cnc(-c2ccccc2)c1-c1ccccc1)N/N=C/c1ccccc1O`: the IC50 was 19.9 µM (inactive).
On to `COc1ccccc1NS(=O)(=O)c1cccc(NC(=O)c2cncc(Br)c2)c1`, for which the IC50 is 12 µM (inactive).
In the case of `O=C(c1ccncc1)N(Cc1cc2ccccc2[nH]c1=O)C1CCCCC1`, the IC50 was 7.87 µM.
In the case of `O=C(CSc1nc(-c2cccs2)cc(C(F)(F)F)n1)Nc1cc(OCC(F)(F)C(F)F)cc([N+](=O)[O-])c1`, the IC50 is 21.9 µM (inactive).
Regarding `CCn1ccnc1CN(C)Cc1cn[nH]c1-c1ccc(F)cc1F`, the IC50 was 11 µM (inactive).
With `COc1ccc(-c2ncncc2-c2ccccc2)c(O)c1`, the IC50 is 19.4 µM (inactive).
In the case of `COc1ccccc1CNC(=O)C(=O)NCCC1CCCCN1S(=O)(=O)c1ccc(C)cc1` (stereo unspecified), the IC50 is 23.1 µM (inactive).
For the compound `CCc1c(C)nc2c(C)cccc2c1SCCC#N`, the IC50 was > 35.9 µM (inactive).
For `CC(=O)NC(c1cc(Cl)c2cccnc2c1O)C(C)C` (stereo unspecified) the value was 8.06 µM; for `CCN(CC(=O)Nc1ccc(NC(C)=O)cc1)C(=O)C1(c2ccc(Cl)cc2)CCC1`, > 35.9 µM (inactive).
On to `CCC(C)(C)n1nnnc1CN1CCC(n2c(C)nc3cc(C(F)(F)F)ccc32)CC1`, for which the IC50 was > 35.9 µM (inactive).
Regarding `C=CCOc1ccc(/C=C2\SC(=S)N(CCC(=O)O)C2=O)cc1`, the IC50 is > 35.9 µM (inactive).
As for `c1nc2sc3c(c2c2nnnn12)CCCC3`, the IC50 is 13.3 µM (inactive).
Turning to `Cc1cccn2c(=O)c3cc(C(=O)NCCN4CCOCC4)c(=N)n(Cc4cccnc4)c3nc12`, the IC50 is 13.5 µM (inactive).
